Experimental data published in ChEMBL document CHEMBL1201862, “PubChem BioAssay data set” (2004).
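These data come from cells grown in 96-well plates and exposed to compound for 48 hours at five concentrations. GI50 marks 50% less growth.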 Active and inactive are the calls of the source. No stated cut-off is given here; in the data, active = GI50 up to about 1.1 µM and inactive = higher.

Tests used:
Experiment in all cases: NCI tumour cell line growth inhibition, 48 h
[1] = test system: KM12
[2] = test system: HOP-62
[3] = test system: A498
[4] = test system: UO-31
[5] = test system: OVCAR-5
[6] = test system: SK-MEL-28
[7] = test system: OVCAR-8
[8] = test system: SNB-75
[9] = test system: SF-539
[10] = test system: MDA-N
[11] = test system: Hs-578T
[12] = test system: T47D
[13] = test system: DU-145
[14] = test system: LOX IMVI
[15] = test system: CCRF-CEM
[16] = test system: BT-549
[17] = test system: OVCAR-3
[18] = test system: OVCAR-4
[19] = test system: NCI-H460
[20] = test system: 786-0
[21] = test system: IGROV-1
[22] = test system: SK-OV-3
[23] = test system: PC-3
[24] = test system: RPMI-8226
[25] = test system: U-251
[26] = test system: NCI-H23
[27] = test system: SF-268
[28] = test system: COLO 205
[29] = test system: EKVX
[30] = test system: SF-295
[31] = test system: HOP-92
[32] = test system: TK-10
[33] = test system: SNB-19
[34] = test system: CAKI-1
[35] = test system: HCT-116
[36] = test system: SW-620
[37] = test system: RXF 393
[38] = test system: K562
[39] = test system: MDA-MB-231
[40] = test system: Malme-3M
[41] = test system: NCI-H226
[42] = test system: SK-MEL-5
[43] = test system: UACC-62
[44] = test system: UACC-257
[45] = test system: HT-29
[46] = test system: NCI-H522
[47] = test system: M14
[48] = test system: SK-MEL-2
[49] = test system: HCC 2998
[50] = test system: HL-60
[51] = test system: ACHN
[52] = test system: A549
[53] = test system: NCI/ADR-RES
[54] = test system: SN12C
[55] = test system: MDA-MB-435
[56] = test system: HCT-15
[57] = test system: MCF7
[58] = test system: SR
[59] = test system: MOLT-4

CCc1ccc(CCC(=O)O)nc1
GI50 [1]: > 100 µM (inactive)
GI50 [2]: > 100 µM (inactive)
GI50 [3]: > 100 µM (inactive)
GI50 [4]: > 100 µM (inactive)
GI50 [5]: > 100 µM (inactive)
GI50 [6]: > 100 µM (inactive)
GI50 [7]: > 100 µM (inactive)
GI50 [8]: > 100 µM (inactive)
GI50 [9]: > 100 µM (inactive)
GI50 [10]: > 100 µM (inactive)
GI50 [11]: > 100 µM (inactive)
GI50 [12]: > 100 µM (inactive)
GI50 [13]: > 100 µM (inactive)
GI50 [14]: > 100 µM (inactive)
GI50 [15]: > 100 µM (inactive)
GI50 [16]: > 100 µM (inactive)
GI50 [17]: > 100 µM (inactive)
GI50 [18]: > 100 µM (inactive)
GI50 [19]: > 100 µM (inactive)
GI50 [20]: > 100 µM (inactive)
GI50 [21]: > 100 µM (inactive)
GI50 [22]: > 100 µM (inactive)
GI50 [23]: > 100 µM (inactive)
GI50 [24]: > 100 µM (inactive)
GI50 [25]: > 100 µM (inactive)
GI50 [26]: > 100 µM (inactive)
GI50 [27]: > 100 µM (inactive)
GI50 [28]: > 100 µM (inactive)
GI50 [29]: > 100 µM (inactive)
GI50 [30]: > 100 µM (inactive)
GI50 [31]: > 100 µM (inactive)
GI50 [32]: > 100 µM (inactive)
GI50 [33]: > 100 µM (inactive)
GI50 [34]: > 100 µM (inactive)
GI50 [35]: > 100 µM (inactive)
GI50 [36]: > 100 µM (inactive)
GI50 [37]: > 100 µM (inactive)
GI50 [38]: > 100 µM (inactive)
GI50 [39]: > 100 µM (inactive)
GI50 [40]: > 100 µM (inactive)
GI50 [41]: > 100 µM (inactive)
GI50 [42]: > 100 µM (inactive)
GI50 [43]: > 100 µM (inactive)
GI50 [44]: > 100 µM (inactive)
GI50 [45]: > 100 µM (inactive)
GI50 [46]: > 100 µM (inactive)
GI50 [47]: > 100 µM (inactive)
GI50 [48]: > 100 µM (inactive)
GI50 [49]: > 100 µM (inactive)
GI50 [50]: > 100 µM (inactive)
GI50 [51]: > 100 µM (inactive)
GI50 [52]: > 100 µM (inactive)
GI50 [53]: > 100 µM (inactive)
GI50 [54]: > 100 µM (inactive)
GI50 [55]: > 100 µM (inactive)
GI50 [56]: > 100 µM
GI50 [57]: > 100 µM (inactive)
GI50 [58]: > 100 µM (inactive)

Cc1ccc(S(=O)(=O)n2cc(C=O)c(-c3cn(S(=O)(=O)c4ccc(C)cc4)cc3-c3cn(S(=O)(=O)c4ccc(C)cc4)cc3C=O)c2)cc1
GI50 [1]: 50.7 µM (inactive)
GI50 [2]: > 100 µM (inactive)
GI50 [3]: > 100 µM (inactive)
GI50 [4]: 52.6 µM (inactive)
GI50 [5]: 85.3 µM (inactive)
GI50 [7]: 37.2 µM (inactive)
GI50 [8]: 29.6 µM (inactive)
GI50 [9]: 25.9 µM (inactive)
GI50 [10]: 75.2 µM (inactive)
GI50 [11]: > 100 µM (inactive)
GI50 [12]: 28 µM (inactive)
GI50 [13]: 69.3 µM (inactive)
GI50 [14]: 21.9 µM (inactive)
GI50 [15]: 17.9 µM (inactive)
GI50 [16]: 60.1 µM (inactive)
GI50 [17]: 78.9 µM (inactive)
GI50 [19]: 29.2 µM (inactive)
GI50 [59]: 12.8 µM (inactive)
GI50 [20]: 35.8 µM (inactive)
GI50 [21]: 53.8 µM (inactive)
GI50 [22]: > 100 µM (inactive)
GI50 [23]: 27.5 µM (inactive)
GI50 [24]: 8.36 µM (inactive)
GI50 [25]: 29.6 µM (inactive)
GI50 [26]: 23.7 µM (inactive)
GI50 [27]: > 100 µM (inactive)
GI50 [28]: 75.2 µM (inactive)
GI50 [29]: 16.7 µM (inactive)
GI50 [30]: 42.9 µM (inactive)
GI50 [31]: 45.4 µM (inactive)
GI50 [32]: 20.9 µM (inactive)
GI50 [33]: 50.2 µM (inactive)
GI50 [34]: > 100 µM (inactive)
GI50 [35]: 28 µM (inactive)
GI50 [36]: 45.1 µM (inactive)
GI50 [37]: 29.5 µM (inactive)
GI50 [38]: 24.3 µM (inactive)
GI50 [39]: > 100 µM (inactive)
GI50 [40]: 24.3 µM (inactive)
GI50 [41]: 29.6 µM (inactive)
GI50 [42]: 41.6 µM (inactive)
GI50 [43]: 48.1 µM (inactive)
GI50 [44]: 54.1 µM (inactive)
GI50 [45]: 36.2 µM (inactive)
GI50 [46]: 26.9 µM (inactive)
GI50 [47]: 29.6 µM (inactive)
GI50 [48]: 33.8 µM (inactive)
GI50 [49]: > 100 µM (inactive)
GI50 [50]: 25.4 µM (inactive)
GI50 [52]: 72.4 µM (inactive)
GI50 [53]: > 100 µM (inactive)
GI50 [54]: > 100 µM (inactive)
GI50 [55]: 44.8 µM (inactive)
GI50 [56]: 55.7 µM
GI50 [57]: 27.4 µM (inactive)
GI50 [58]: 13.6 µM (inactive)

CN(C)C(=S)Oc1ccc2ccc(=O)oc2c1
GI50 [1]: > 100 µM (inactive)
GI50 [2]: > 100 µM (inactive)
GI50 [3]: > 100 µM (inactive)
GI50 [4]: > 100 µM (inactive)
GI50 [5]: > 100 µM (inactive)
GI50 [6]: > 100 µM (inactive)
GI50 [7]: > 100 µM (inactive)
GI50 [8]: > 100 µM (inactive)
GI50 [9]: > 100 µM (inactive)
GI50 [10]: > 100 µM (inactive)
GI50 [11]: > 100 µM (inactive)
GI50 [12]: > 100 µM (inactive)
GI50 [13]: > 100 µM (inactive)
GI50 [14]: > 100 µM (inactive)
GI50 [16]: > 100 µM (inactive)
GI50 [17]: > 100 µM (inactive)
GI50 [18]: > 100 µM (inactive)
GI50 [19]: > 100 µM (inactive)
GI50 [59]: > 100 µM (inactive)
GI50 [20]: > 100 µM (inactive)
GI50 [21]: > 100 µM (inactive)
GI50 [22]: > 100 µM (inactive)
GI50 [23]: > 100 µM (inactive)
GI50 [24]: > 100 µM (inactive)
GI50 [25]: > 100 µM (inactive)
GI50 [26]: > 100 µM (inactive)
GI50 [27]: > 100 µM (inactive)
GI50 [28]: > 100 µM (inactive)
GI50 [29]: > 100 µM (inactive)
GI50 [30]: > 100 µM (inactive)
GI50 [31]: > 100 µM (inactive)
GI50 [32]: > 100 µM (inactive)
GI50 [33]: > 100 µM (inactive)
GI50 [34]: > 100 µM (inactive)
GI50 [35]: > 100 µM (inactive)
GI50 [36]: > 100 µM (inactive)
GI50 [37]: > 100 µM (inactive)
GI50 [39]: > 100 µM (inactive)
GI50 [40]: > 100 µM (inactive)
GI50 [41]: > 100 µM (inactive)
GI50 [42]: > 100 µM (inactive)
GI50 [43]: > 100 µM (inactive)
GI50 [44]: > 100 µM (inactive)
GI50 [45]: > 100 µM (inactive)
GI50 [46]: > 100 µM (inactive)
GI50 [47]: > 100 µM (inactive)
GI50 [48]: > 100 µM (inactive)
GI50 [49]: > 100 µM (inactive)
GI50 [50]: > 100 µM (inactive)
GI50 [51]: > 100 µM (inactive)
GI50 [52]: > 100 µM (inactive)
GI50 [53]: > 100 µM (inactive)
GI50 [54]: > 100 µM (inactive)
GI50 [55]: > 100 µM (inactive)
GI50 [56]: > 100 µM
GI50 [57]: > 100 µM (inactive)
GI50 [58]: > 100 µM (inactive)
